Assay results published in PubChem BioAssay (NCI).
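Dose response: 5 concentrations. Exposure: 48 h. Format: 96-well plates. Endpoint: linear interpolation; highest concentration if not reached. Abbreviation: GI50, concentration required for 50% inhibition of growth. TGI denotes the concentration required for complete inhibition of growth.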

What was measured:
Assay in all cases: DTP human tumour cell line panel, 48 h
[1] = tested on: OVCAR-4 ovarian
[2] = tested on: SR leukemia
[3] = tested on: DU-145 prostate
[4] = tested on: HCC-2998 colon
[5] = tested on: MOLT-4 leukemia
[6] = tested on: KM12 colon
[7] = tested on: IGROV1 ovarian
[8] = tested on: NCI-H226 lung
[9] = tested on: SK-OV-3 ovarian
[10] = tested on: RXF 393 renal

Row | SMILES | GI50 [1] | TGI [1] | GI50 [2] | TGI [2] | GI50 [3] | TGI [3] | GI50 [4] | TGI [4] | GI50 [5] | TGI [5] | GI50 [6] | TGI [6] | GI50 [7] | TGI [7] | GI50 [8] | TGI [8] | GI50 [9] | TGI [9] | TGI [10] | GI50 [10]
1 | COc1ccc(Cc2cnc(NC(=O)c3ccc4c(c3)OCCO4)s2)cc1 | 0.0836 µM | > 100 µM | 0.0114 µM | > 100 µM | 0.037 µM | > 41.1 µM | 0.038 µM | > 69.6 µM | 0.0504 µM | > 100 µM | 0.0264 µM | 11.1 µM | 0.0485 µM | > 55.2 µM | 1.72 µM | 88.5 µM | 0.0321 µM | > 100 µM | – | –
2 | OCC(O)CNc1ccnc2cc(Cl)ccc12 (stereo unspecified) | – | > 100 µM | – | > 100 µM | – | – | – | > 100 µM | – | > 100 µM | – | > 100 µM | – | > 100 µM | – | > 100 µM | – | > 100 µM | > 100 µM | –
3 | Nc1nc(N)nc(CCCc2nc(N)nc(N)n2)n1 | – | > 100 µM | – | > 100 µM | – | > 100 µM | – | – | – | > 100 µM | – | > 100 µM | – | > 100 µM | – | > 100 µM | – | > 100 µM | > 100 µM | –
4 | Nc1ccc2[nH]cc(CCC(=O)O)c2c1 | – | > 100 µM | – | – | – | > 100 µM | – | – | – | > 100 µM | – | > 100 µM | – | > 100 µM | – | > 100 µM | – | > 100 µM | > 100 µM | –
5 | Clc1cc(Cl)cc(Nc2ccc3cc(OCCCN4CCOCC4)ccc3n2)c1 | 3.44 µM | > 100 µM | – | – | 3.05 µM | > 100 µM | 1.73 µM | 3.31 µM | 1.77 µM | 5.81 µM | 2.23 µM | 5.4 µM | 3.47 µM | > 100 µM | 3.76 µM | > 100 µM | 2.62 µM | 7.24 µM | 3.6 µM | 1.51 µM
6 | CCOC(=O)/C(=C/c1cccc(C#N)c1)N(CC)CC | – | > 100 µM | – | > 100 µM | – | – | – | > 100 µM | – | > 100 µM | – | > 100 µM | – | > 100 µM | – | > 100 µM | – | > 100 µM | – | –
7 | CC1=C(C(=O)Nc2ccccc2)C(c2ccc(C3C(C(=O)Nc4ccccc4)=C(C)NC(C)=C3C(=O)Nc3ccccc3)cc2)C(C(=O)Nc2ccccc2)=C(C)N1 | – | 16.1 µM | – | 5.41 µM | – | – | – | 5.74 µM | – | 11.6 µM | – | 5.01 µM | – | 6.94 µM | – | 16 µM | – | 26.2 µM | 3.87 µM | –
8 | COc1cc(C2C(C(=O)Nc3cc(F)c(F)cc3F)=C(C)NC(C)=C2C(=O)Nc2cc(F)c(F)cc2F)ccc1O | – | > 100 µM | – | – | – | – | – | 33.4 µM | – | 45.2 µM | – | 35.8 µM | – | > 100 µM | – | 79.5 µM | – | – | 52.2 µM | –
9 | CC(=O)OCCOCNC(=S)N/N=C/c1ccc(Br)s1 | – | > 100 µM | – | > 100 µM | – | – | – | > 100 µM | – | > 100 µM | – | > 100 µM | – | > 100 µM | – | > 100 µM | – | > 100 µM | > 100 µM | –
10 | Cc1cccc(N=C2NC(=O)C(CC(=O)Nc3cccc(C)c3C)S2)c1 (stereo unspecified) | – | > 100 µM | – | – | – | – | – | > 100 µM | – | > 100 µM | – | > 100 µM | – | > 100 µM | – | > 100 µM | – | – | > 100 µM | –
11 | COC(=O)c1cccc2cccc(C(=O)Nc3ccc(Cl)cc3)c12 | – | > 100 µM | – | 50.8 µM | – | – | – | > 100 µM | – | > 100 µM | – | > 100 µM | – | > 100 µM | – | > 100 µM | – | > 100 µM | > 100 µM | –
12 | C=CCN1CC2CON(C(=O)C(OC)(c3ccccc3)C(F)(F)F)C2C1C(C)C (stereo unspecified) | 67.1 µg/mL | – | 11.1 µg/mL | 65.1 µg/mL | 54 µg/mL | – | 18.1 µg/mL | 38.8 µg/mL | 15 µg/mL | 46.6 µg/mL | 36.2 µg/mL | – | 56.9 µg/mL | – | – | – | 40.2 µg/mL | – | – | –
13 | Oc1ccc(Br)cc1C=Nc1ccc(N=Cc2cc(Br)ccc2O)cc1 | – | > 100 µM | – | > 100 µM | – | – | – | > 100 µM | – | > 100 µM | – | > 100 µM | – | > 100 µM | – | > 100 µM | – | > 100 µM | > 100 µM | –
14 | Clc1ccc(N=CNc2ccc(-c3nc4ccccc4o3)cc2)cc1 | – | – | 40.6 µM | > 100 µM | 14 µM | 38.2 µM | – | – | 60.7 µM | > 100 µM | 15.4 µM | 38.7 µM | 84.2 µM | > 100 µM | 27.2 µM | > 100 µM | 28.6 µM | > 100 µM | 80.6 µM | 25.8 µM
15 | O=C1C(=O)N(c2cc(Cl)ccc2Cl)C(=O)C(=O)C1c1nc2ccccc2o1 | – | > 100 µM | – | – | – | – | – | > 100 µM | – | > 100 µM | – | > 31.6 µM | – | > 100 µM | – | – | – | > 100 µM | > 100 µM | –
16 | N#CC(C(=O)CCC(=O)Nc1cccc(C(F)(F)F)c1)c1ccc(Cl)cc1 (stereo unspecified) | – | > 100 µM | – | – | – | – | – | > 100 µM | – | > 100 µM | – | > 100 µM | – | > 100 µM | – | > 100 µM | – | > 100 µM | – | –
17 | O=C(O)C12CC3(C(=O)O)CC(C(=O)O)(CC(C(=O)O)(C1)C3=O)C2=O | – | > 100 µM | – | > 100 µM | – | > 100 µM | – | – | – | > 100 µM | – | > 100 µM | – | > 100 µM | – | > 100 µM | – | > 100 µM | > 100 µM | –
18 | COC(=O)/C(=C\c1ccc(N(CCC#N)CCC#N)cc1)NC(=O)c1cc([N+](=O)[O-])ccc1Cl | – | > 100 µM | – | 81.5 µM | – | – | – | > 100 µM | – | > 100 µM | – | > 100 µM | – | > 100 µM | – | > 100 µM | – | > 100 µM | > 100 µM | –
19 | CC1=C(c2cc(C(=O)Nc3ccc(Cl)cc3)nc(=S)[nH]2)Sc2ccccc2N1 | – | > 100 µM | – | – | – | – | – | > 100 µM | – | – | – | > 100 µM | – | > 100 µM | – | – | – | > 100 µM | > 100 µM | –
20 | OCCNCCOc1ccc(/C(=C(/Cl)c2ccccc2)c2ccccc2)cc1 | – | 31.5 µM | – | 12.5 µM | – | – | – | – | – | 17.2 µM | – | 13.5 µM | – | 25.4 µM | – | 45 µM | – | 10.4 µM | 14.7 µM | –
21 | CCN(CC)c1cc2oc3cc(N)cc(=N)c-3nc2cc1C | – | – | – | – | 2.2 µM | 4.92 µM | 10 µM | 81.2 µM | – | – | 3.93 µM | 29.8 µM | 3.03 µM | 14.3 µM | 3.39 µM | 42.8 µM | 22.2 µM | > 100 µM | 26.9 µM | 13.1 µM
22 | C=CCn1c2c(sc1=S)C(S)N=CN2 (stereo unspecified) | – | > 100 µM | – | > 100 µM | – | – | – | > 100 µM | – | > 100 µM | – | > 100 µM | – | > 100 µM | – | > 100 µM | – | > 100 µM | > 100 µM | –
